Assay results published in ChEMBL document CHEMBL6078728 (Bioorg Med Chem, 2025).
The source made the active and inactive calls. The rule behind the calls is not given here.

How the values were obtained:
[1] = Inhibition of NLRP3 inflammasome activation in LPS/ATP stimulated human THP-1 cells assessed as inhibition of IL-1beta production pretreated with compound for 15 mins followed by LPS and ATP addition and measured after 2 hrs by ELISA; assay type: cell-based
[2] = Drug concentration in male Sprague-Dawley rat plasma at 10 mg/kg, ip measured after 1 hr by LC-MS/MS analysis; assay type: ADME, organism-based
[3] = Drug concentration in male Sprague-Dawley rat brain at 10 mg/kg, ip measured after 1 hr by LC-MS/MS analysis; assay type: ADME, organism-based; conditions: read-out: Ct
[4] = Ratio of drug concentration in brain to plasma in male Sprague-Dawley rat at 10 mg/kg, ip measured after 1 hr by LC-MS/MS analysis; assay type: ADME, organism-based; conditions: brain and plasma, read-out: BPR
[5] = Inhibition of NLRP3 inflammasome activation in LPS primed mouse BMDM cells assessed as inhibition of IL-1beta production preincubated with compound for 1 hr followed by nigericin stimulation and measured after 1 hr by ELISA method; assay type: cell-based
[6] = target: NACHT, LRR and PYD domains-containing protein 3 (Rattus norvegicus) (UniProt D4A523); conditions: wistar, dose <= 30.0 mg/kg, route po, time 30.0 min
THP-1 = assay: Antiinflammatory activity against LPS/ATP stimulated human THP-1 cells assessed as ASC speck formation by DAPI staining based cell analyzer; assay type: functional
[7] = Inhibition of NLRP3 inflammasome activation in LPS stimulated human THP-1 cells assessed as inhibition of TNF-alpha production pretreated with compound for 15 mins followed by LPS and ATP addition and measured after 2 hrs by ELISA; assay type: cell-based
[8] = Drug concentration in male Sprague-Dawley rat plasma at 5 mg/kg, ip measured after 1 hr by LC-MS/MS analysis; assay type: ADME, organism-based
[9] = Drug concentration in male Sprague-Dawley rat brain at 5 mg/kg, ip measured after 1 hr by LC-MS/MS analysis; assay type: ADME, organism-based; conditions: read-out: Ct
[10] = Ratio of drug concentration in brain to plasma in male Sprague-Dawley rat at 5 mg/kg, ip measured after 1 hr by LC-MS/MS analysis; assay type: ADME, organism-based; conditions: brain and plasma, read-out: BPR
[11] = Intrinsic clearance in human liver microsomes at 0.2 uM in presence of NADPH incubated for 30 mins by LC-MS/MS analysis; assay type: ADME, Microsome; conditions: read-out: CLH
[12] = Intrinsic clearance in rat liver microsomes at 0.2 uM in presence of NADPH incubated for 30 mins by LC-MS/MS analysis; assay type: ADME, Microsome; conditions: read-out: CLH
[13] = Ratio of drug concentration in brain to plasma in male Sprague-Dawley rat at 10 mg/kg, po measured after 1 hr by LC-MS/MS analysis; assay type: ADME, organism-based; conditions: brain and plasma, read-out: BPR
[14] = target: NACHT, LRR and PYD domains-containing protein 3 (Rattus norvegicus) (UniProt D4A523); assay: In vivo inhibition of NLRP3 activation in LPS-induced male wistar rat model assessed as inhibition of IL-1 beta production in CSF at 0.3 mg/kg, po measured after 30 mins by Western blotting analysis; assay type: functional, organism-based
[15] = target: NACHT, LRR and PYD domains-containing protein 3 (Rattus norvegicus) (UniProt D4A523); assay: In vivo inhibition of NLRP3 activation in LPS-induced male wistar rat model assessed as inhibition of IL-1 beta production in CSF at 1 mg/kg, po measured after 30 mins by Western blotting analysis; assay type: functional, organism-based
[16] = target: NACHT, LRR and PYD domains-containing protein 3 (Rattus norvegicus) (UniProt D4A523); assay: In vivo inhibition of NLRP3 activation in LPS-induced male wistar rat model assessed as inhibition of IL-1 beta production in CSF at 3 mg/kg, po measured after 30 mins by Western blotting analysis; assay type: functional, organism-based
[17] = Inhibition of NLRP3 inflammasome activation in alpha-synuclein pre-formed fibril stimulated human THP-1 cells assessed as inhibition of IL-1beta production preincubated with compound for 15 mins followed by alpha-synuclein pre-formed fibril addition and measured after 24 hrs by ELISA; assay type: cell-based
Mus musculus [18] = assay: Improvement of motor dysfunction in pathogenic alpha-synuclein induced male C57BL/6J mouse assessed as reduction in number of falls at 1 mg/kg, po administered once a day for 4 weeks and measured 1 hr after last administration by hanging wire test; assay type: functional, organism-based
Mus musculus [19] = assay: Improvement of motor dysfunction in pathogenic alpha-synuclein induced male C57BL/6J mouse assessed as reduction in number of falls at 10 mg/kg, po administered once a day for 4 weeks and measured 1 hr after last administration by hanging wire test; assay type: functional, organism-based

NACHT, LRR and PYD domains-containing protein 3 (Rattus norvegicus), sequence (D4A523 whole entry, the tested form may be a part): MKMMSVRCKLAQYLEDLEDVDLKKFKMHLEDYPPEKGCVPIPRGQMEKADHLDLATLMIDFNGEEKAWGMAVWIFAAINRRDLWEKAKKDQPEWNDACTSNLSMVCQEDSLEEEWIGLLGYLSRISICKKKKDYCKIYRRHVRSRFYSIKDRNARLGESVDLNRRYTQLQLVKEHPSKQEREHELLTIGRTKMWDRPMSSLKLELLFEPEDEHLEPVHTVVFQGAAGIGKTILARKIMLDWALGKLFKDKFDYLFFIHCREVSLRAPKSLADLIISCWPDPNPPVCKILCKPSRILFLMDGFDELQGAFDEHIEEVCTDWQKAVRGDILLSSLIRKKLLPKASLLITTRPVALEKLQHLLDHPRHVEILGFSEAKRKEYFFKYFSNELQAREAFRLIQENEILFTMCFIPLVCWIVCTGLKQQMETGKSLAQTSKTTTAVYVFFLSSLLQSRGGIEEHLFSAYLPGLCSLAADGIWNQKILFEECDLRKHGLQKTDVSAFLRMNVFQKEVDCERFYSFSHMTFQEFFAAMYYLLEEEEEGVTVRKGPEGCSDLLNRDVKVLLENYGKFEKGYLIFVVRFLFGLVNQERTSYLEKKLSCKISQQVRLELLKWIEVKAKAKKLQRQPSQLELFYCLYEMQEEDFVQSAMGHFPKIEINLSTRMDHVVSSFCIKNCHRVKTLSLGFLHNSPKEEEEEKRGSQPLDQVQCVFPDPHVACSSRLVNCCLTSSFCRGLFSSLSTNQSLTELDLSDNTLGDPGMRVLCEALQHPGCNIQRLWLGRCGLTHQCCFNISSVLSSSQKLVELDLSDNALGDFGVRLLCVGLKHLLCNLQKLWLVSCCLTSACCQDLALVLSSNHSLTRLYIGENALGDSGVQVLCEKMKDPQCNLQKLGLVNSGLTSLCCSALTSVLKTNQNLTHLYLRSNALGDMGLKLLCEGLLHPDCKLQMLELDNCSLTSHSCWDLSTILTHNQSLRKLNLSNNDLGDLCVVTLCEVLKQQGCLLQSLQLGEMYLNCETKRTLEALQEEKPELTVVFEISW

IC50 [1] [nM]	SMILES	also measured
230	C[C@H](O)CNc1nnc(-c2ccc(C(F)(F)F)cc2)c2ccccc12	–
90	Cc1cc(-c2ccc(C(F)(F)F)cc2C(F)(F)F)nnc1NC[C@@H](C)O	–
160	Cc1cc(-c2ccc(C(F)(F)F)cc2O)nnc1NC[C@@H](C)O	–
110	OCCCNc1nnc(-c2ccc(C(F)(F)F)cc2C(F)(F)F)c2ccccc12	–
210	Cc1c(NC[C@@H](C)O)nnc(-c2ccc(C(F)(F)F)cc2C(F)(F)F)c1C	–
590	Cc1c(NC[C@@H](C)O)nnc(-c2ccc(C(F)(F)F)cc2C(F)F)c1C	–
230	CC(CO)CNc1nnc(-c2ccc(C(F)(F)F)cc2)c2ccccc12 (stereo not given)	–
27	Cc1c(N[C@H]2CCC[C@H]2O)nnc(-c2ccc(C(F)(F)F)cc2O)c1C	–
14	Cc1c(NC[C@@H](C)O)nnc(-c2ccc(C(F)(F)F)cc2O)c1C	–
3500	CC(CCO)Nc1nnc(-c2ccc(C(F)(F)F)cc2)c2ccccc12 (stereo not given)	–
510	OCCCNc1nnc(-c2ccc(C(F)(F)F)cc2F)c2ccccc12	–
1200	CC(O)CCNc1nnc(-c2ccc(C(F)(F)F)cc2)c2ccccc12 (stereo not given)	–
–	CC(C)(O)c1coc(S(=O)(=O)NC(=O)Nc2c3c(cc4c2CCC4)CCC3)c1	concentration at 1 h [2]: 2320 ng/mL; concentration at 1 h [3]: 23.1 ng/g; Kp at 1 h [4]: 0.01; IC50 [5]: 7.5 nM; inhibition [6]: inactive
980	OCCCNc1nnc(-c2ccc(C(F)(F)F)c(F)c2)c2ccccc12	–
650	Cc1c(N[C@H]2CCC[C@@H]2O)nnc(-c2ccc(C(F)(F)F)cc2O)c1C	–
1000	CC(C)(CO)CNc1nnc(-c2ccc(C(F)(F)F)cc2)c2ccccc12	–

IC50 [1] [nM]	SMILES	also measured
610	OCCNc1nnc(-c2ccc(C(F)(F)F)cc2)c2ccccc12	–
2000	Cc1ccc(-c2nnc(NCCCO)c3ccccc23)cc1	IC50 (THP-1): 3100 nM; IC50 [7]: > 10000 nM; concentration at 1 h [8]: 360 ng/mL; concentration at 1 h [9]: 117 ng/g; Kp at 1 h [10]: 0.33
17	Cc1cc(NC[C@@H](C)O)nnc1-c1ccc(C(F)(F)F)cc1O	–
150	C[C@@H](O)CNc1ccc(-c2ccc(C(F)(F)F)cc2C(F)(F)F)nn1	–
5200	OCCCNc1nnc(-c2ccccc2C(F)(F)F)c2ccccc12	–
370	OCCCNc1nnc(-c2ccc(C(F)(F)F)cc2)c2ccccc12	–
57	C[C@@H](O)CNc1nnc(-c2ccc(C(F)(F)F)cc2C(F)(F)F)c2ccccc12	–
490	Cc1cc(C(F)(F)F)ccc1-c1nnc(NCCCO)c2ccccc12	–
200	Cc1cc(NC[C@@H](C)O)nnc1-c1ccc(C(F)(F)F)cc1C(F)(F)F	–
28	Cc1c(N[C@@H]2CCC[C@H]2O)nnc(-c2ccc(C(F)(F)F)cc2O)c1C	–
140	C[C@@H](O)CNc1nnc(-c2ccc(C(F)(F)F)cc2)c2ccccc12	–
1700	COCCCNc1nnc(-c2ccc(C(F)(F)F)cc2)c2ccccc12	–
–	Cc1c(N[C@@H]2CCCC[C@H]2O)nnc(-c2ccc(C(F)(F)F)cc2O)c1C	IC50 (THP-1): 5.7 nM; IC50 [7]: > 10000 nM; microsomal CLint at 0.2 µM [11]: < 20 µL/min/mg; microsomal CLint at 0.2 µM [12]: < 20 µL/min/mg; Kp at 1 h [13]: 0.94; inhibition [14]: Active; inhibition [15]: Active; inhibition [16]: Active; IC50 [17]: 6.3 nM; Activity (Mus musculus [18]): Active; Activity (Mus musculus [19]): Active
350	OCCCNc1nnc(-c2ccc(C(F)(F)F)cc2Cl)c2ccccc12	–
17000	OCCCNc1nnc(-c2cccc(C(F)(F)F)c2)c2ccccc12	–
